The source of these data is US20090202645A1, “INTRASYNOVIAL FORMULATIONS OF STANOZOLOL” (ACME DRUGS S.R.L., priority 2008, published 2009).

For data set [1], the system named is synovial fibroblasts from rheumatoid synovial tissue. The settings on record: cited from earlier work.
In data set [2] the test system is cartilage tissue. As to the kind of experiment: effect on tissue, especially cartilage tissue. The settings on record: unlike the majority of NSAIDs and anti-inflammatory corticosteroids.
Data set [3] deals with healthy skin fibroblast. The settings on record: cited from earlier work.
Data set [4] can be described thus: solubility in water. It is filed as physicochemical. The settings on record: crystalline substance. From the text:
The formulations according to the invention of stanozolol in an aqueous carrier are therefore aqueous suspensions, and it is necessary to prevent the suspended crystals of the drug from causing mechanical lesions such as abrasions and erosions despite the pressures and friction generated by the movement of the joint on the surfaces of the cartilage and synovial membrane.

A short description of data set [5]: persistence in the joint after a single intrasynovial injection. It counts as in vivo. The source says: A single intrasynovial injection of said formulations allows the stanozolol to be brought up to and maintained at pharmacologically active concentrations in the joint for 6-7 days, a period which is long enough to produce evident clinical benefits and fully compatible with long-term treatments.

Data set [6] in a line: persistence in synovial fluid of the typical intrasynovial preparation. It counts as in vivo. The settings on record: micronised stanozolol 5 mg, water for injectables to 1 ml, horses and humans. The protocol: An example of the formulation of a typical preparation containing stanozolol administrable by the intrasynovial route to horses and humans, which remains in the synovial fluid for 5-7 days, is set out below:
Active ingredient: micronised stanozolol (having a prevalent population of particles with a diameter of less than 20 μm) 5 mg;
Water for injectables q.s. to 1 ml.

For the compound `C[C@]12Cc3c[nH]nc3C[C@@H]1CC[C@@H]1[C@@H]2CC[C@@]2(C)[C@H]1CC[C@]2(C)O` [stanozolol], in data set [1], the “effect on synovial fibroblasts” value is reported as “no effect”. For the same compound, in data set [2], the “degeneration of tissue, especially cartilage tissue” value is “does not cause the degeneration of tissue, especially cartilage tissue, but regenerates it”. Moreover, in data set [3], the “production of PGE2” value is recorded as “induces the production” and the production of collagenase entry was “induces the production”. Also, the solubility in water result in data set [4] is recorded as “insoluble in water”. Moreover, in data set [5], the “time stanozolol is maintained at pharmacologically active concentrations in the joint” value is listed as 6-7 days. For the same compound, the “time remaining in the synovial fluid” value in data set [6] lay in the range of 5 to 7 days.
